In the supplement of paper PMC10307832:

What was measured:
GSK-J4 + Vorinostat = compound: CCOC(=O)CCNc1cc(N2CCc3ccccc3CC2)nc(-c2ccccn2)n1 [GSK-J4] + O=C(CCCCCCC(=O)Nc1ccccc1)NO [Vorinostat] (partner 1 µM); assay: relative viability (nuclei count vs DMSO), 5 days (fraction); higher = more cells survive
Outline: (§1)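 Lung cancer cell lines were pin-tool dosed in 1536-well plates on the day after seeding, with either a lone drug or a fixed anchor-drug dose plus five library-drug doses (not always all listed) in √10 steps. Nuclei were counted on 4× images after 5 days. Relative viability is the ratio of treated-well to vehicle-well nuclei counts, with each value a median of duplicate plates.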

GSK-J4 + AZD7762 = compound: CCOC(=O)CCNc1cc(N2CCc3ccccc3CC2)nc(-c2ccccn2)n1 [GSK-J4] + NC(=O)Nc1cc(-c2cccc(F)c2)sc1C(=O)N[C@H]1CCCNC1 [AZD7762] (partner 0.2 µM); assay: as above
Outline: as §1

Cell Line | relative viability (GSK-J4 + Vorinostat; first compound 0.5 µM) | relative viability (GSK-J4 + Vorinostat; first compound 1.581 µM) | relative viability (GSK-J4 + Vorinostat; first compound 5 µM) | relative viability (GSK-J4 + Vorinostat; first compound 15.81 µM) | relative viability (GSK-J4 + Vorinostat; first compound 50 µM) | relative viability (GSK-J4 + AZD7762; first compound 0.5 µM) | relative viability (GSK-J4 + AZD7762; first compound 1.581 µM) | relative viability (GSK-J4 + AZD7762; first compound 5 µM) | relative viability (GSK-J4 + AZD7762; first compound 15.81 µM) | relative viability (GSK-J4 + AZD7762; first compound 50 µM)
HOP-62 | 0.48 | 0.355 | 0.585 | 0.507 | 0.35 | 0.555 | 0.573 | 0.45 | 0.592 | 0.451
IA-LM | 0.901 |  | 1.34 | 0.711 | 0.294 |  |  |  |  | 
LC-2-ad | 0.787 | 0.529 | 0.325 | 0.704 | 0.528 | 0.845 | 0.756 | 0.634 | 0.785 | 0.81
LCLC-97TM1 | 0.684 | 0.442 | 0.681 | 0.507 | 0.578 | 0.197 | 0.23 | 0.384 | 0.209 | 0.337
LCLC-103H | 0.77 | 0.671 | 0.624 | 0.675 | 0.546 | 0.811 | 0.76 | 0.525 | 0.69 | 0.65
LK-2 | 0.193 | 0.248 | 0.243 | 0.126 | 0.579 | 0.53 | 0.29 | 0.663 | 0.168 | 0.19
LOU-NH91 | 1.02 | 0.868 | 0.668 | 0.841 | 0.902 | 0.773 | 0.734 | 0.561 | 0.703 | 0.74
LU99A | 0.47 | 0.344 |  | 0.476 | 0.319 | 0.277 | 0.249 |  | 0.244 | 0.126
LXF-289 | 0.821 | 0.631 | 0.874 | 0.692 | 0.653 | 1.09 | 0.836 | 0.742 | 1.07 | 0.987
NCI-H23 | 0.596 | 0.411 | 0.583 | 0.473 | 0.506 | 0.206 | 0.388 | 0.254 | 0.239 | 0.265
NCI-H322M | 0.877 | 0.964 | 1.11 | 0.84 | 0.928 | 0.618 | 0.506 | 0.555 | 0.636 | 0.536
NCI-H358 | 0.662 |  | 0.671 | 0.602 | 0.455 | 0.598 | 0.576 | 0.692 | 0.606 | 0.44
NCI-H441 | 0.716 | 0.602 | 0.779 | 0.714 | 0.715 | 1.12 | 1 | 1.05 | 1.01 | 0.967
NCI-H460 | 0.663 |  | 0.623 | 0.67 | 0.656 | 0.645 |  |  | 0.65 | 0.555
NCI-H520 | 0.644 | 0.527 | 0.69 | 0.659 | 0.648 |  |  |  |  | 
NCI-H522 | 0.931 | 0.725 |  | 0.651 | 0.862 | 0.909 | 0.759 |  | 0.637 | 0.603
NCI-H596 | 0.743 | 0.475 | 0.654 | 0.503 | 0.365 | 1.18 | 1.12 | 1.01 | 0.926 | 1.12
NCI-H647 | 0.59 | 0.719 | 0.553 | 0.646 | 0.43 | 0.596 | 0.431 | 0.271 | 0.386 | 0.44
